Test results: patent publication US11787790B2, “Benzimidazole derivative having fluorine-containing substituent, preparation and application thereof” (YUNBAIYAO ZHENGWU SCIENCE AND TECHNOLOGY (SHANGHAI) CO., …, priority 2020, dated 2023)

Experiments:
[1] = test system: A549 cells (human non-small cell lung cancer cells); assay: CCK-8 anti-proliferation assay, A549 cells; format: cell-based; details: CCK-8, 72 hours incubation
Procedure: (§1) The anti-proliferation activities of compounds 1-11 to U87MG cells (human malignant glioma cells, ATCC 5018014), NCI-H1975 cells (human non-small cell lung adenocarcinoma cells, ATCC 57849016), A549 cells (human non-small cell lung cancer cells, ATCC 7503618), HCT 116 (human colon cancer cells, ATCC 4587576), and MCF-7 (human breast cancer cells, ATCC 5105360) were verified by using a CCK-8 method.
(§2) A sample stock solution with a concentration of 20 μM was prepared first. The stock solution was sequentially diluted to obtain 10 samples with concentrations of 20000 nM, 4000 nM, 800 nM, 160 nM, 32 nM, 6.4 nM, 1.28 nM, 0.256 nM, 0.0512 nM, and 0.01024 nM, respectively.
(§3) 50 μL of cell suspension with density of 2*10^4 cells/mL was prepared in 96-well plates followed by pre-culturing in the incubator for 24 hours (37° C., 5% CO2). 50 μL of afore-mentioned sample solution was added into each well. After incubated for 72 hours, 10 μl of CCK-8 solution was added into each well, and then further incubated for additional 2 hours.

[2] = test system: HCT 116 (human colon cancer cells); assay: CCK-8 anti-proliferation assay, HCT 116 cells; format: cell-based; details: CCK-8, 72 hours incubation, read-out: HCT116 cell IC50
Procedure: as §1, §2, §3

[3] = test system: U87MG cells (human malignant glioma cells); assay: CCK-8 anti-proliferation assay, U87MG cells; format: cell-based; details: U-87 MG, CCK-8, 72 hours incubation, read-out: U87MG cell IC50
Procedure: as §1, §2, §3

[4] = Determination of half-lethal dose (LD50) in mice; details: both sexes, mouse, in vivo, Kunming mice, gastric administration, Bliss calculation method
Procedure: The SPF-grade Kunming mice, belonging to the outbred stock and weighing 20±2 g, were selected (a ratio of the males to the females was 1:1). The dosage range of each compound was explored through pre-experiments. After that, formal tests were carried out. In the range of 0-100% of the lethal dose obtained by the pre-experiments, five doses were selected to increase or decrease according to the isobaric series to allow the mortality of one half of the groups to be 50% or above, and the other half to be 50% or less. After animal grouping and dosage calculation were completed, gastric administration was performed according to the group. The time from the administration to the beginning of the occurrence of toxic reaction, the poisoning phenomenon and the occurrence sequence thereof, the time of the first occurrence of death, the time of death concentration, and the time of the last occurrence of death were recorded. The number of deaths in each group was recorded day by day.

[5] = test system: MCF-7 (human breast cancer cells); assay: CCK-8 anti-proliferation assay, MCF-7 cells; format: cell-based; details: MCF7, CCK-8, 72 hours incubation, read-out: MCF-7 cell IC50
Procedure: as §1, §2, §3

[6] = test system: NCI-H1975 cells (human non-small cell lung adenocarcinoma cells); assay: CCK-8 anti-proliferation assay, NCI-H1975 cells; format: cell-based; details: CCK-8, 72 hours incubation
Procedure: as §1, §2, §3

[7] = in vivo; cited from earlier work
[8] = oral administrated; cited from earlier work

N#CCCNc1nonc1-c1nc2ccccc2n1CC(F)(F)c1ccc(N)cc1 [Compound 1, 3-[(4-{1-[2-(4-aminophenyl)-2,2-difluoroethyl]-1H-benzimidazol-2-yl}-1,2,5-oxadiazol-3-yl)amino] propionitrile] showed an IC50 [1] of 29 nM, an IC50 [2] of 19.7 nM and an IC50 [3] of 31.3 nM. It also gave an LD50 ([4]; oral) of 267 mg/kg, an IC50 [5] of 33 nM and an IC50 [6] of 19.4 nM.
For N#CCCNc1nonc1-c1nc2c(O)cccc2n1CC(F)(F)c1ccc(N)cc1 [Compound 2], the IC50 [1] was 18.2 nM, the IC50 [2] was 28.3 nM and the IC50 [3] was 22.4 nM. It also gave an LD50 ([4]; oral) of 245 mg/kg, an IC50 [5] of 17.4 nM and an IC50 [6] of 31.2 nM.
Compound N#CCCNc1nonc1-c1nc2cc(O)ccc2n1CC(F)(F)c1ccc(N)cc1 [Compound 3] has an IC50 [1] of 26.8 nM, an IC50 [2] of 13.6 nM and an IC50 [3] of 13.2 nM. For the same compound, the LD50 ([4]; oral) was 239 mg/kg, the IC50 [5] was 13.2 nM and the IC50 [6] was 13.3 nM.
With N#CCCNc1nonc1-c1nc2c(Cl)cccc2n1CC(F)(F)c1ccc(N)cc1 [Compound 4] the IC50 [1] was 12.9 nM, the IC50 [2] was 12.1 nM and the IC50 [3] was 27.3 nM. It also gave an LD50 ([4]; oral) of 262 mg/kg, an IC50 [5] of 21.7 nM and an IC50 [6] of 14.9 nM.
With N#CCCNc1nonc1-c1nc2cc(Cl)ccc2n1CC(F)(F)c1ccc(N)cc1 [Compound 5] the IC50 [1] was 13.2 nM, the IC50 [2] was 35.8 nM and the IC50 [3] was 15.7 nM. The LD50 ([4]; oral) was 264 mg/kg, the IC50 [5] was 16.9 nM and the IC50 [6] was 27.4 nM.
For N#CCCNc1nonc1-c1nc2cc(C(F)(F)F)ccc2n1CC(F)(F)c1ccc(N)cc1 [Compound 6], the IC50 [1] was 14.7 nM, the IC50 [2] was 17.2 nM and the IC50 [3] was 34.2 nM. The LD50 ([4]; oral) was 254 mg/kg, the IC50 [5] was 13.2 nM and the IC50 [6] was 11.9 nM.
Cc1ccc2c(c1)nc(-c1nonc1NCCC#N)n2CC(F)(F)c1ccc(N)cc1 [Compound 7] gave an IC50 [1] of 13.9 nM, an IC50 [2] of 13.7 nM and an IC50 [3] of 12.5 nM. For the same compound, the LD50 ([4]; oral) was 239 mg/kg, the IC50 [5] was 25.7 nM and the IC50 [6] was 32.4 nM.
Compound N#CCCNc1nonc1-c1nc2ccccc2n1CC(F)c1ccc(N)cc1 (stereo not drawn) [Compound 8, 3-[(4-{1-[2-(4-aminophenyl)-2-fluoroethyl]-1H-benzimidazol-2-yl}-1,2,5-oxadiazol-3-yl)amino] propionitrile] has an IC50 [1] of 33.7 nM, an IC50 [2] of 24.4 nM and an IC50 [3] of 15.6 nM. The LD50 ([4]; oral) was 291 mg/kg, the IC50 [5] was 22.8 nM and the IC50 [6] was 17.5 nM.
Compound N#CCCNc1nonc1-c1nc2ccccc2n1C(F)(F)c1ccc(N)cc1 [Compound 9] has an IC50 [1] of 28.7 nM, an IC50 [2] of 28.5 nM and an IC50 [3] of 23.9 nM. The LD50 ([4]; oral) was 305 mg/kg, the IC50 [5] was 32.8 nM and the IC50 [6] was 19.8 nM.
With N#CCCNc1nonc1-c1nc2ccccc2n1CCC(F)(F)c1ccc(N)cc1 [Compound 10] the IC50 [1] was 41.5 nM, the IC50 [2] was 38.7 nM and the IC50 [3] was 41.2 nM. The LD50 ([4]; oral) was 323 mg/kg, the IC50 [5] was 38.5 nM and the IC50 [6] was 34.3 nM.
For N#CCCNc1nonc1-c1nc2ccccc2n1CC(=O)c1ccc(N)cc1 [Compound 11, 3-{[4-(1-(4-aminoacetophenone)-benzimidazol-2-yl)-1,2,5-oxadiazol-3-yl]amino}propionitrile, reference compound], the “crossing the blood-brain barrier” value [7] is given as “capable of crossing the blood-brain barrier”, the IC50 [1] is given as 42.4 nM and the IC50 [2] is given as 52.6 nM. The IC50 [3] was 51.2 nM, the LD50 [4] was 153 mg/kg and the IC50 [5] was 39.2 nM. The IC50 [6] was 42.8 nM.
In the case of Cn1nnc2c(C(N)=O)ncn2c1=O [Temozolomide], the “crossing the blood-brain barrier” value [7] is listed as “can cross the blood-brain barrier” and the bioavailability [8] is listed as ~100%.
